Data reported in patent publication US20100029657A1, “Bridged, Bicyclic Heterocyclic or Spiro Bicyclic Heterocyclic Derivatives of Pyrazolo[1, 5-A]Pyrimidines, Methods for Preparation and Uses Thereof” (Wyeth, priority 2008, published 2010).

Each compound was assayed against T1, Flag/GST-tagged recombinant human B-Raf (Homo sapiens, UniProt P15056) (assay: B-Raf kinase assay (phosphorylation of GST-MEK1, phospho-MEK1 antibody/Europium detection)). Conditions: B-Raf IC50 Data for compounds of Formula A; read-out: Mean IC50.
T1 construct: Flag; GST; made in house; host or cells: Sf9 insect cells (B-Raf); E. coli (MEK1-GST)
Assay type: biochemical
Experimental: B-Raf1 Kinase Assay Procedure: B-Raf-1 is used to phosphorylate GST-MEK1.
• 1. Assay Dilution Buffer (ADB): 20 mM MOPS, pH 7.2, 25 mM β-glycerol phosphate, 5 mM EGTA, 1 mM sodium orthovanadate, 1 mM dithiothreitol, 0.01% Triton X-100. • 2. Magnesium/ATP Cocktail: ADB solution (minus Triton X-100) plus 200 μM cold ATP and 40 mM magnesium chloride. • 4. Active Kinase: Active B-Raf: Used at 0.2 nM per assay point. • 5. […] TBST—Tris (50 mM, pH 7.5), NaCl (150 mM), Tween-20 (0.05%) • 7. Anti-GST Ab (GE) • 8. Anti pMEK Ab (Upstate) • 9. Anti-rabbit Ab/Europium conjugate (Wallac).
B-Raf Assay Procedure: • 1. Added 25 μL of ADB containing B-Raf and Mek per assay (i.e. per well of a 96 well plate) • 2. Added 25 μL of 0.2 mM ATP and 40 mM magnesium chloride in Magnesuium/ATP Cocktail. • 3. Incubated for 45 minutes at RT with occasional shaking. • 4. Transferred this mixture to an anti-GST Ab coated 96 well plate (Nunc Immunosorb plates coated o/n with a-GST. Plate freshly washed 3×with TBS-T before use. • 5. Incubated o/n at […] in cold room. • 6. Washed 3× with TBST, ed Anti-Phospho MEK1 (1:1000, dilution depended upon lot) • 7. Incubated for 60 minutes at RT in a shaking incubator • 8. Washed 3× with TBST, add Anti-rabbit Ab/Europium conjugate (Wallac) (1:500, dilution depended upon lot) • 9. Incubated for 60 minutes at RT on a platform shaker. • 10. Washed plate 3× with TBS-T • 11. Added 100 μL of Wallac Delfia Enhancement Solution and agitated for 10 minutes. • 12. Read plates in Wallac Victor model Plate Reader. • 13.
The % inhibition was determined for each compound concentration.

T1 sequence (P15056 whole entry): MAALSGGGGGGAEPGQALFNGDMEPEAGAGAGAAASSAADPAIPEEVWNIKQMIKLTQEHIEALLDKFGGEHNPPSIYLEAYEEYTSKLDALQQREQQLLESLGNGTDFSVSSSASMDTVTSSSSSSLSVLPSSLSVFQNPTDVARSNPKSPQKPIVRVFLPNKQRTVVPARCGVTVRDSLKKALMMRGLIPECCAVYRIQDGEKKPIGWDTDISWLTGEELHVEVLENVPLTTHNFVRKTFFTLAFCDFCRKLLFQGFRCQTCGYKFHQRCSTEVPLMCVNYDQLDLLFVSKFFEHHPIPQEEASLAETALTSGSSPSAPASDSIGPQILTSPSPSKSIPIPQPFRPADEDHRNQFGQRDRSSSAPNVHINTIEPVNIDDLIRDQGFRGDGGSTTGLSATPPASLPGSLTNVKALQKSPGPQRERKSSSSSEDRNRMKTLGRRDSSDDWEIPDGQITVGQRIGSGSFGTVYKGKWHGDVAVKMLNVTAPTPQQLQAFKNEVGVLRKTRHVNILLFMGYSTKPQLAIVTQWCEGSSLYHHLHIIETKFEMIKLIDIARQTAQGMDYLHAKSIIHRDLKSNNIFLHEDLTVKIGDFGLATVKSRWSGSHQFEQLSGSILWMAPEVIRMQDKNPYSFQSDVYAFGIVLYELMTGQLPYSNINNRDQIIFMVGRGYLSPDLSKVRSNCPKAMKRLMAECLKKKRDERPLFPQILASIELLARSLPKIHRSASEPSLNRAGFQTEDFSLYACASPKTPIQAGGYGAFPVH

| SMILES | IC50 [µM] |
| --- | --- |
| CCN1C2CCC1CC(c1ccnc3c(-c4ccc(N)cc4)c(-c4ccncc4)nn13)C2 (stereo not drawn) [Example 22, 4-(7-(8-Ethyl-8-azabicyclo[3.2.1]octan-3-yl)-2-(pyridin-4-yl)pyrazolo[1,5-a]pyrimidin-3-yl)aniline] | > 1 |
| CN1C2CCC1CN(c1ccc(-c3ccnc4c(-c5cccc(O)c5)c(-c5ccncc5)nn34)cc1)C2 [Example 25, 3-{7-[4-(8-Methyl-3,8-diaza-bicyclo[3.2.1]oct-3-yl)-phenyl]-2-pyridin-4-yl-pyrazolo[1,5-a]pyrimidin-3-yl}-phenol] | 0.001 |
| CN1C[C@@H]2C[C@H]1CN2c1ccc(-c2ccnc3c(-c4cccc(O)c4)c(-c4ccncc4)nn23)cc1 [Example 30, 3-{7-[4-((1S,4S)-5-Methyl-2,5-diaza-bicyclo[2.2.1]hept-2-yl)-phenyl]-2-pyridin-4-yl-pyrazolo[1,5-a]pyrimidin-3-yl}-phenol] | < 0.003 |
| COc1cc(-c2c(-c3ccncc3)nn3c(-c4ccc(N5C[C@@H]6C[C@H]5CN6)cc4)ccnc23)ccc1F [Example 32, 7-(4-((1S,4S)-2,5-Diaza-bicyclo[2.2.1]heptan-2-yl)phenyl)-3-(4-fluoro-3-methoxyphenyl)-2-(pyridin-4-yl)pyrazolo[1,5-a]pyrimidine] | 0.0087 |
| Oc1cc(-c2c(-c3ccncc3)nn3c(-c4ccc(N5C[C@@H]6C[C@H]5CN6)cc4)ccnc23)ccc1F [Example 33, 5-(7-(4-((1S,4S)-2,5-Diazabicyclo[2.2.1]heptan-2-yl)phenyl)-2-(pyridin-4-yl)pyrazolo[1,5-a]pyrimidin-3-yl)-2-fluorophenol] | < 0.0003 |
| CN1C[C@@H]2C[C@H]1CN2c1ccc(-c2ccnc3c(-c4cccc5[nH]ncc45)c(-c4ccncc4)nn23)cn1 [Example 34, 3-(1H-Indazol-4-yl)-7-(6-((1S,4S)-5-methyl-2,5-diazabicyclo[2.2.1]heptan-2-yl)pyridin-3-yl)-2-(pyridin-4-yl)pyrazolo[1,5-a]pyrimidine] | 0.0023 |

Results, then the compound that gave them:

| IC50 [µM] | SMILES |
| --- | --- |
| > 1 | CCN1C2CCC1CC(c1ccnc3c(-c4ccc(NC(N)=O)cc4)c(-c4ccncc4)nn13)C2 (stereo not drawn) [Example 23, 1-(4-(7-(8-Ethyl-8-azabicyclo[3.2.1]octan-3-yl)-2-(pyridin-4-yl)pyrazolo[1,5-a]pyrimidin-3-yl)phenyl)urea] |
| 0.016 | COc1cccc(-c2c(-c3ccncc3)nn3c(-c4ccc(N5C[C@@H]6C[C@H]5CN6)cc4)ccnc23)c1 [Example 28, 7-[4-((1S,4S)-2,5-Diaza-bicyclo[2.2.1]hept-2-yl)-phenyl]-3-(3-methoxy-phenyl)-2-pyridin-4-yl-pyrazolo[1,5-a]pyrimidine] |
| 0.0005 | Oc1cccc(-c2c(-c3ccncc3)nn3c(-c4ccc(N5C[C@@H]6C[C@H]5CN6)cc4)ccnc23)c1 [Example 29, 3-{7-[4-((1S,4S)-2,5-Diaza-bicyclo[2.2.1]hept-2-yl)-phenyl]-2-pyridin-4-yl-pyrazolo[1,5-a]pyrimidin-3-yl}-phenol] |
| 0.0018 | COc1cc(-c2c(-c3ccncc3)nn3c(-c4ccc(N5C[C@@H]6C[C@H]5CN6)cc4)ccnc23)ccc1Cl [Example 31, 7-(4-((1S,4S)-2,5-Diaza-bicyclo[2.2.1]heptan-2-yl)phenyl)-3-(4-chloro-3-methoxyphenyl)-2-(pyridin-4-yl)pyrazolo[1,5-a]pyrimidine] |

Same assay, conditions: Mean IC50 (uM), B-Raf IC50 Data for compounds of Formula A

| SMILES | IC50 [µM] |
| --- | --- |
| COc1cc(-c2c(-c3ccncc3)nn3c(-c4ccc(N5CC6CCC(C5)N6C)cc4)ccnc23)ccc1Cl [Example 26, 3-(4-Chloro-3-methoxy-phenyl)-7-[4-(8-methyl-3,8-diaza-bicyclo[3.2.1]oct-3-yl)-phenyl]-2-pyridin-4-yl-pyrazolo[1,5-a]pyrimidine] | 0.01 |
| CN1C2CCC1CN(c1ccc(-c3ccnc4c(-c5ccc(Cl)c(O)c5)c(-c5ccncc5)nn34)cc1)C2 [Example 27, 2-Chloro-5-{7-[4-(8-methyl-3,8-diaza-bicyclo[3.2.1]oct-3-yl)-phenyl]-2-pyridin-4-yl-pyrazolo[1,5-a]pyrimidin-3-yl}-phenol] | < 0.0003 |
